In ChEMBL document CHEMBL4507259 (2021):

Legend:
[1] = test system: Tyrosine-protein kinase ABL1 (Homo sapiens), P00519 [F317L]; settings: Compound concentration 1000.0 nM
[2] = biological target: NUAK family SNF1-like kinase 1 (Homo sapiens) (UniProt O60285); settings: Compound concentration 1000.0 nM
[3] = biological target: T1, 5-hydroxytryptamine receptor 2C (Homo sapiens) (UniProt P28335); assay: 5-HT2C (h) CEREP ligand profiling; settings: filed as antagonist, Compound concentration 10.0 uM
T1 sequence (whole entry): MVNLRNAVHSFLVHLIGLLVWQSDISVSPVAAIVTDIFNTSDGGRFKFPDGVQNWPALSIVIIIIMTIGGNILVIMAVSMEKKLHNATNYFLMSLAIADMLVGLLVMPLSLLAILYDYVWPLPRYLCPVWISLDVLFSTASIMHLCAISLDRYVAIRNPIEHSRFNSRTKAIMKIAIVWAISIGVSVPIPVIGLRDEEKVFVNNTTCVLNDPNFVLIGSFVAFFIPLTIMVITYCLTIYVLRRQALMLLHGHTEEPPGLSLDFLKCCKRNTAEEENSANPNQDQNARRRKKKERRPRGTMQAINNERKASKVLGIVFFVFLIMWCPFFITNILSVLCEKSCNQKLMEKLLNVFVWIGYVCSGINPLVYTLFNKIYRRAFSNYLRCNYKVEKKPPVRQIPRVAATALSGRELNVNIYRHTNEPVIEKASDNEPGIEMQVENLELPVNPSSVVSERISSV

[4] = biological target: Mitogen-activated protein kinase 6 (Homo sapiens) (UniProt Q16659); settings: Compound concentration 1000.0 nM
[5] = biological target: Ribosomal protein S6 kinase alpha-1 (Homo sapiens) (UniProt Q15418); settings: Compound concentration 1000.0 nM
[6] = biological target: NT-3 growth factor receptor (Homo sapiens) (UniProt Q16288); settings: Compound concentration 1000.0 nM
[7] = test system: Proto-oncogene tyrosine-protein kinase receptor Ret (Homo sapiens), P07949 [V804M]; settings: Compound concentration 1000.0 nM
[8] = test system: ALK tyrosine kinase receptor (Homo sapiens), Q9UM73 [C1156Y]; settings: Compound concentration 1000.0 nM
[9] = test system: Serine/threonine-protein kinase B-raf (Homo sapiens), P15056 [V600E]; settings: Compound concentration 1000.0 nM
[10] = GPCRScan assay: inhibition of GABA/PBR; design: species or system Rattus norvegicus; radioligand conc. used [nm] 0.3 – 2.0, parental cells brain tissue
[11] = biological target: Serine/threonine-protein kinase ULK3 (Homo sapiens) (UniProt Q6PHR2); settings: Compound concentration 1000.0 nM
[12] = biological target: D(2) dopamine receptor (Homo sapiens) (UniProt P14416); assay: D2S (h) CEREP ligand profiling; settings: filed as antagonist, Compound concentration 10.0 uM
[13] = biological target: 5-hydroxytryptamine receptor 1D (Homo sapiens) (UniProt P28221); settings: Compound concentration 10.0 uM
[14] = biological target: Serine/threonine-protein kinase/endoribonuclease IRE1 (Homo sapiens) (UniProt O75460); settings: Compound concentration 1000.0 nM
[15] = biological target: Serine/threonine-protein kinase pim-3 (Homo sapiens) (UniProt Q86V86); settings: Compound concentration 1000.0 nM
[16] = biological target: Glycogen synthase kinase-3 beta (Homo sapiens) (UniProt P49841); settings: Compound concentration 1000.0 nM
[17] = biological target: Myosin light chain kinase, smooth muscle (Homo sapiens) (UniProt Q15746); settings: Compound concentration 1000.0 nM
[18] = biological target: Serine/threonine-protein kinase 4 (Homo sapiens) (UniProt Q13043); settings: Compound concentration 1000.0 nM
[19] = biological target: Phosphatidylinositol 3-kinase C2 domain-containing subunit gamma (Homo sapiens) (UniProt O75747); settings: Compound concentration 1000.0 nM
[20] = biological target: Cyclin-dependent kinase 19 (Homo sapiens) (UniProt Q9BWU1); settings: Compound concentration 1000.0 nM
[21] = biological target: Cyclin-dependent kinase 3 (Homo sapiens) (UniProt Q00526); settings: Compound concentration 1000.0 nM
[22] = biological target: Serine/threonine-protein kinase PAK 6 (Homo sapiens) (UniProt Q9NQU5); settings: Compound concentration 1000.0 nM
[23] = biological target: 5-hydroxytryptamine receptor 1B (Homo sapiens) (UniProt P28222); settings: Compound concentration 10.0 uM
[24] = biological target: Mitogen-activated protein kinase kinase kinase kinase 2 (Homo sapiens) (UniProt Q12851); settings: Compound concentration 1000.0 nM
[25] = biological target: Ribosomal protein S6 kinase beta-1 (Homo sapiens) (UniProt P23443); settings: Compound concentration 1000.0 nM
[26] = biological target: Activin receptor type-1B (Homo sapiens) (UniProt P36896); settings: Compound concentration 1000.0 nM
[27] = biological target: Serine/threonine-protein kinase DCLK1 (Homo sapiens) (UniProt O15075); settings: Compound concentration 1000.0 nM
[28] = biological target: Tyrosine-protein kinase Tec (Homo sapiens) (UniProt P42680); settings: Compound concentration 1000.0 nM
[29] = biological target: Non-receptor tyrosine-protein kinase TNK1 (Homo sapiens) (UniProt Q13470); settings: Compound concentration 1000.0 nM
[30] = biological target: Serine/threonine-protein kinase WNK1 (Homo sapiens) (UniProt Q9H4A3); settings: Compound concentration 1000.0 nM
[31] = biological target: Serine/threonine-protein kinase 17B (Homo sapiens) (UniProt O94768); settings: Compound concentration 1000.0 nM
[32] = biological target: Mitogen-activated protein kinase 15 (Homo sapiens) (UniProt Q8TD08); settings: Compound concentration 1000.0 nM
[33] = biological target: Serine/threonine-protein kinase NIM1 (Homo sapiens) (UniProt Q8IY84); settings: Compound concentration 1000.0 nM
[34] = biological target: Kappa-type opioid receptor (Homo sapiens) (UniProt P41145); settings: Compound concentration 10.0 uM
[35] = biological target: Dual serine/threonine and tyrosine protein kinase (Homo sapiens) (UniProt Q6XUX3); settings: Compound concentration 1000.0 nM
[36] = biological target: Tyrosine-protein kinase BTK (Homo sapiens) (UniProt Q06187); settings: Compound concentration 1000.0 nM
[37] = biological target: Serine/threonine-protein kinase DCLK2 (Homo sapiens) (UniProt Q8N568); settings: Compound concentration 1000.0 nM
[38] = biological target: Serine/threonine-protein kinase TNNI3K (Homo sapiens) (UniProt Q59H18); settings: Compound concentration 1000.0 nM
[39] = biological target: Serine/threonine-protein kinase RIO1 (Homo sapiens) (UniProt Q9BRS2); settings: Compound concentration 1000.0 nM
Serine/threonine-protein kinase RIO1 (Homo sapiens), sequence (Q9BRS2 whole entry): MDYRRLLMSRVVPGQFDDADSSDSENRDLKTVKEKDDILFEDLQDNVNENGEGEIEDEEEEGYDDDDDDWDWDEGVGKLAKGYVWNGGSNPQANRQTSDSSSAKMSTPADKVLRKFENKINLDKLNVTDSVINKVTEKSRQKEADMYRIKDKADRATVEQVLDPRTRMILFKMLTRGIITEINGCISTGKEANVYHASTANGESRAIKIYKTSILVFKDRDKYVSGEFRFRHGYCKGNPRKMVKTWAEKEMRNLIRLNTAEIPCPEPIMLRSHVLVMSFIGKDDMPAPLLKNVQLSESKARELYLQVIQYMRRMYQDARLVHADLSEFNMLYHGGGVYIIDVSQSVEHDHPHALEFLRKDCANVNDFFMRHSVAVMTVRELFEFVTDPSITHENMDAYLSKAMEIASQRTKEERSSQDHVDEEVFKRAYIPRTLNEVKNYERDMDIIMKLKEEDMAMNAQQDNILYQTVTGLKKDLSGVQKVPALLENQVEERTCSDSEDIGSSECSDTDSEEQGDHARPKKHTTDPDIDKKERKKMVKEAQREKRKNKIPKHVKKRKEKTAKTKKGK

Cyclin-dependent kinase 19 (Homo sapiens), sequence (Q9BWU1 whole entry): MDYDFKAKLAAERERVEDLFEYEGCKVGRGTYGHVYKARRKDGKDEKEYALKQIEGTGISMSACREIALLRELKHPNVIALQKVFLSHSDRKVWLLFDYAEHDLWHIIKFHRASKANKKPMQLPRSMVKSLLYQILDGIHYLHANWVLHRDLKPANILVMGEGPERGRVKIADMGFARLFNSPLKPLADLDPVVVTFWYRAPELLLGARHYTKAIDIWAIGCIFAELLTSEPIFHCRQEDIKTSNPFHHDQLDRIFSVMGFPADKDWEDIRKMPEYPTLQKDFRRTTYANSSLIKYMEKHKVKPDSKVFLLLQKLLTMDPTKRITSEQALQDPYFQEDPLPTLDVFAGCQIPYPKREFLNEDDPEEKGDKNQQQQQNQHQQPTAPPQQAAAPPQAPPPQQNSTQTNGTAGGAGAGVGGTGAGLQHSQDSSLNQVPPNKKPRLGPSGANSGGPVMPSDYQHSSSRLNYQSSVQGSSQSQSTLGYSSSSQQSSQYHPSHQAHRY
Serine/threonine-protein kinase ULK3 (Homo sapiens), sequence (Q6PHR2 whole entry): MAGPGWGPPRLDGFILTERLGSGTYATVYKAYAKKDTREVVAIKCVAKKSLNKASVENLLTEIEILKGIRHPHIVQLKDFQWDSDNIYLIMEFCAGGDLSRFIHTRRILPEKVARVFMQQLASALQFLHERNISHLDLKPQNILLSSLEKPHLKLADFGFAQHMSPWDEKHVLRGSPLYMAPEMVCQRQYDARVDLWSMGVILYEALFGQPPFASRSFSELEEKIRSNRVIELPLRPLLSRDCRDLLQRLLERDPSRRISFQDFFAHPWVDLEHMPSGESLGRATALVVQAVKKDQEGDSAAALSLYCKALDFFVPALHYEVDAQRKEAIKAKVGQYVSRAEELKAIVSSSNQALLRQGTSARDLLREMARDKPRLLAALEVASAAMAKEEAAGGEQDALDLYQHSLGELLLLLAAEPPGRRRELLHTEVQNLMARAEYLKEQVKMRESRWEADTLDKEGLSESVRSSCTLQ
5-hydroxytryptamine receptor 1B (Homo sapiens), sequence (P28222 whole entry): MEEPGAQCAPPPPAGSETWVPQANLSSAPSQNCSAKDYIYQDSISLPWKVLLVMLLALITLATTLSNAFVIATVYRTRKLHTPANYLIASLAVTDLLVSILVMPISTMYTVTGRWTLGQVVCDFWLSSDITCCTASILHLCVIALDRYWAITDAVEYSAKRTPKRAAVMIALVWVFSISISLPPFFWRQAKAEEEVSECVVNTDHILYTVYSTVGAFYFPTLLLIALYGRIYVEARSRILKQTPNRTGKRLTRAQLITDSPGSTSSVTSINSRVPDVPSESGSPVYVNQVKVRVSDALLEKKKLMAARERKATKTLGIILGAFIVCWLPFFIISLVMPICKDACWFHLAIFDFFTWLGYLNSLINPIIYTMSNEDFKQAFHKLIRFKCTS
Tyrosine-protein kinase Tec (Homo sapiens), sequence (P42680 whole entry): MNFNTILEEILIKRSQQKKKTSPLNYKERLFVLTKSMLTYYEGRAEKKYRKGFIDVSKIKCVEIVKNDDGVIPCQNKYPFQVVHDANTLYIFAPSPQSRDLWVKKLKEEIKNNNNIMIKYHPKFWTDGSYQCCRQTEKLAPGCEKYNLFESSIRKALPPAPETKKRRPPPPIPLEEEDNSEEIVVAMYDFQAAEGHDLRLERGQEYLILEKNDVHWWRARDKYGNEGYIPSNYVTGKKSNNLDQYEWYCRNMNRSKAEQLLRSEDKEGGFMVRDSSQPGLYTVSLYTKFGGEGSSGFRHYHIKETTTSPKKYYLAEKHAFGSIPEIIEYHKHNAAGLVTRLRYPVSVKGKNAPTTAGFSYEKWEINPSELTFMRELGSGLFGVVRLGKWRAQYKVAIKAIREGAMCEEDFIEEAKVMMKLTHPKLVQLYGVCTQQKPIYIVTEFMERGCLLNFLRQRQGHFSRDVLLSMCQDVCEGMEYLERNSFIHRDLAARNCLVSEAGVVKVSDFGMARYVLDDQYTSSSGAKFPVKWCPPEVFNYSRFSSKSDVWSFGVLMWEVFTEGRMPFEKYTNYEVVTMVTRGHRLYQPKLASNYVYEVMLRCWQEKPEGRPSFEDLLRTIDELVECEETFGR
Mitogen-activated protein kinase 6 (Homo sapiens), sequence (Q16659 whole entry): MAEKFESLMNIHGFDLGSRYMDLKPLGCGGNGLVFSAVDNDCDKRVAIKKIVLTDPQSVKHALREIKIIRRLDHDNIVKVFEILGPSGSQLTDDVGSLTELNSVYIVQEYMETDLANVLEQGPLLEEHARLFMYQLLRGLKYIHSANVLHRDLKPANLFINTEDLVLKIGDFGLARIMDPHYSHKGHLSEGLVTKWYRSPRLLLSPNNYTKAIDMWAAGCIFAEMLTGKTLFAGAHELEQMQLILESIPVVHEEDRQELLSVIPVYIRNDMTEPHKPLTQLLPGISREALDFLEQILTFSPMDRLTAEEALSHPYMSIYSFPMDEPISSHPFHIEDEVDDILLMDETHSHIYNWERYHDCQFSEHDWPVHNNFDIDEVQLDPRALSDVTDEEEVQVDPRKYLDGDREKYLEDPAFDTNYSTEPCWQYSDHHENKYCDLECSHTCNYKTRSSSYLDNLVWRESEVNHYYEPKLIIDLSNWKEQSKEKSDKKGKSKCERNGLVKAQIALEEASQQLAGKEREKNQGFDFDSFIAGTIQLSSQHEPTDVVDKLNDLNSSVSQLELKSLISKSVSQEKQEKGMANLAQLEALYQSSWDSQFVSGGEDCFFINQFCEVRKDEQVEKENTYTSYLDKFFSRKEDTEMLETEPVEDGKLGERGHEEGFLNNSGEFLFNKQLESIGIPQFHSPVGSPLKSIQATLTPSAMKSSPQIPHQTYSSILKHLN
Ribosomal protein S6 kinase alpha-1 (Homo sapiens), sequence (Q15418 whole entry): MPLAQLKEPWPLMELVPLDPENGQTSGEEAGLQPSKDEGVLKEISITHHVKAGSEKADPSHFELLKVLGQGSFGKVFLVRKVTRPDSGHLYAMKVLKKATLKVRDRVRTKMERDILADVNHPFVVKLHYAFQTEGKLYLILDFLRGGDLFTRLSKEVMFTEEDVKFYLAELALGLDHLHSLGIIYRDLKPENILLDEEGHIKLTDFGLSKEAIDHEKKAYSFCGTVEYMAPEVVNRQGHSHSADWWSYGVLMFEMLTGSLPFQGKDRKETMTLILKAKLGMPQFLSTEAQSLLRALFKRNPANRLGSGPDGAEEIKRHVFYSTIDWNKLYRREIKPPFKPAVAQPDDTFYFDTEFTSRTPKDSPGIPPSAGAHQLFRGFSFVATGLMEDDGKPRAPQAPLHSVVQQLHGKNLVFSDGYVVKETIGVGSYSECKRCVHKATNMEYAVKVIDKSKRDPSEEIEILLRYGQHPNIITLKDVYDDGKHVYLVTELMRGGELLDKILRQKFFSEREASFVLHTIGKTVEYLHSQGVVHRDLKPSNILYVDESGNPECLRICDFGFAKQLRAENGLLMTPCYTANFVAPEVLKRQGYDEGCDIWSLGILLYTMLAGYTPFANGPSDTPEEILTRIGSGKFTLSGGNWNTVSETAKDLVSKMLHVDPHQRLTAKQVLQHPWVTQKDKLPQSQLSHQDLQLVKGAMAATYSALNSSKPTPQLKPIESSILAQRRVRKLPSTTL
Activin receptor type-1B (Homo sapiens), sequence (P36896 whole entry): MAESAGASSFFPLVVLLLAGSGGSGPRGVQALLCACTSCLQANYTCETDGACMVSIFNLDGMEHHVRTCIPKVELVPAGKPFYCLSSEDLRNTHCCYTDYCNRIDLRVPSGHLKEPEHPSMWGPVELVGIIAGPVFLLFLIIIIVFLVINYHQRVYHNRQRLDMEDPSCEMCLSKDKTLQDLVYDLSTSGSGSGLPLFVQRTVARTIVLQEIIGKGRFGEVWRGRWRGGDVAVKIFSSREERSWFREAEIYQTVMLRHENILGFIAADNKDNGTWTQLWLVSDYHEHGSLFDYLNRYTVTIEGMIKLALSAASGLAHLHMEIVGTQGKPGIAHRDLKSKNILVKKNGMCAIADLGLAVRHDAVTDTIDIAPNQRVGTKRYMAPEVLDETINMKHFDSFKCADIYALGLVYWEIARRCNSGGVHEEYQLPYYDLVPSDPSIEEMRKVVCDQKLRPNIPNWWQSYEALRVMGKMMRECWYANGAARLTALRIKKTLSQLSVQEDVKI
D(2) dopamine receptor (Homo sapiens), sequence (P14416 whole entry): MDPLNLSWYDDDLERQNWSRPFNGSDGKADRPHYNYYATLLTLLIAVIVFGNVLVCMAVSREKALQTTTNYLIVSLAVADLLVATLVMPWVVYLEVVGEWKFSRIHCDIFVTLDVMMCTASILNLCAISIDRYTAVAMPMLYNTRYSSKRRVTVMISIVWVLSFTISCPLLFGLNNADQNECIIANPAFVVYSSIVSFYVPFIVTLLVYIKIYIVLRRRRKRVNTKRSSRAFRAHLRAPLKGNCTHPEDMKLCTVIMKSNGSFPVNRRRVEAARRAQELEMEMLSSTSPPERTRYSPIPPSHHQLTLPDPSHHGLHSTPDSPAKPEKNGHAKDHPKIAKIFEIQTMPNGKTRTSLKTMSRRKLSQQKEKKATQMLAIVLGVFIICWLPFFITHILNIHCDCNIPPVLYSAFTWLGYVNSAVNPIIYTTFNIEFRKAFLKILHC

CNC(=O)Nc1ccc2c(c1)CC[C@@]21OC(=O)N(CC(=O)N(Cc2ccc(F)cc2)[C@@H](C)C(F)(F)F)C1=O [A-485]
residual activity [1]: 77% | residual activity [2]: 94% | inhibition [3]: -2% | residual activity [4]: 100% | residual activity [5]: 88% | residual activity [6]: 84% | residual activity [7]: 98% | residual activity [8]: 88% | residual activity [9]: 100% | Ki [10]: 1110 nM | pKi [10]: 5.96 | residual activity [11]: 90% | inhibition [12]: 13% | inhibition [13]: 18% | residual activity [14]: 56% | residual activity [15]: 97% | residual activity [16]: 82% | residual activity [17]: 66% | residual activity [18]: 100% | residual activity [19]: 75% | residual activity [20]: 96% | residual activity [21]: 100% | residual activity [22]: 91% | inhibition [23]: 9.82% | residual activity [24]: 76% | residual activity [25]: 100% | residual activity [26]: 86% | residual activity [27]: 96% | residual activity [28]: 90% | residual activity [29]: 86% | residual activity [30]: 93% | residual activity [31]: 100% | residual activity [32]: 74% | residual activity [33]: 71% | inhibition [34]: 18.5% | residual activity [35]: 78% | residual activity [36]: 87% | residual activity [37]: 70% | residual activity [38]: 97% | residual activity [39]: 100%

CNC(=O)Nc1ccc2c(c1)[C@@]1(CC2)OC(=O)N(CC(=O)N(Cc2ccc(F)cc2)[C@@H](C)C(F)(F)F)C1=O [A-486]
residual activity [1]: 78% | residual activity [2]: 88% | inhibition [3]: -7% | residual activity [4]: 97% | residual activity [5]: 100% | residual activity [6]: 82% | residual activity [7]: 100% | residual activity [8]: 100% | residual activity [9]: 96% | Ki [10]: 2580 nM | pKi [10]: 5.6 | residual activity [11]: 55% | inhibition [12]: -3% | inhibition [13]: 2.22% | residual activity [14]: 100% | residual activity [15]: 89% | residual activity [16]: 95% | residual activity [17]: 88% | residual activity [18]: 100% | residual activity [19]: 97% | residual activity [20]: 100% | residual activity [21]: 100% | residual activity [22]: 100% | inhibition [23]: 11.2% | residual activity [24]: 92% | residual activity [25]: 100% | residual activity [26]: 100% | residual activity [27]: 76% | residual activity [28]: 100% | residual activity [29]: 100% | residual activity [30]: 79% | residual activity [31]: 77% | residual activity [32]: 93% | residual activity [33]: 76% | inhibition [34]: 8.21% | residual activity [35]: 89% | residual activity [36]: 97% | residual activity [37]: 89% | residual activity [38]: 98% | residual activity [39]: 100%
